“Also recorded” adds a separate entry of the source. One block for each compound: values may come before it.
Key:
KRAS^G12V = molecular target: T1, KRAS^G12V (Homo sapiens, UniProt P01116, G12V); assay: FRET-Probe isothermal chemical denaturation (ICD) assay, KRAS^G12V; assay type: binding; details: for S/B ratio, denaturation with and without GTP: 1 µM GTP
T1 construct: Monomer (2-188); host or cells: E. coli
Experimental: (§1) All isothermal chemical denaturation (ICD) assays were conducted in triplicates at RT using a single-step protocol with 25 µL final volume. Sample protein and ligand were added in 5 µL in a buffer (10 mM HEPES (pH 7.5), 10 mM NaCl, (v/v) 0.01% Brij 30) without denaturant. FRET-Probe (0.5 nM) was added to the assay buffer supplemented with chemical denaturant, urea (0–5 M), ethanol (0–30%) or 1-propanol (0–50%). Additionally, 0.2 mM EDTA was used in combination with alcohols.
(§2) In all ICD protein assays, time-resolved Förster resonance energy transfer (TR-FRET) signal was monitored kinetically at multiple time points during 150 min incubation. In all assays with protein binding ligands, 30 min preincubation prior denaturant addition was performed. In acid induced denaturation assay, GTP (0–2 µM) and NADH (0–50 µM) were titrated with KRAS^G12V and MDH, respectively. 1-propanol (30–50%) ICD assays were also performed for MDH in the presence of NADH (0–50 µM) and (20%) for KRAS^G12V using GTP (0–10 µM). […] Additionally, urea was tested with 1 µM GTP with KRAS^G12V.

[1] = molecular target: T2, malate dehydrogenase (MDH) (Sus scrofa, UniProt P00346); assay: FRET-Probe thermal shift assay (TSA), MDH with NADH; assay type: binding; details: for Tm of MDH with NADH: 25 nM MDH
T2 construct: purchased Sigma-Aldrich (St. Louis, MO, USA)
T2 sequence (P00346 25-338): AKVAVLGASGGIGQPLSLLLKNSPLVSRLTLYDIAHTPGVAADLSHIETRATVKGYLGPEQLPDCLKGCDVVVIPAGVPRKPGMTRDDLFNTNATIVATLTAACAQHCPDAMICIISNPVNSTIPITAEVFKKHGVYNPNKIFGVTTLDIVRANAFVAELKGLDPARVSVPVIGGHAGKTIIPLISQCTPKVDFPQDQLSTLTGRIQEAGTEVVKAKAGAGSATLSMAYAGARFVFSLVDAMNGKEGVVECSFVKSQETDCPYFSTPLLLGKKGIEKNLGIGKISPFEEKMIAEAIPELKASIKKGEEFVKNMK
Experimental: All FRET-Probe TSA were conducted in triplicates using a single-step protocol, by adding the sample protein in 5 µL and FRET-Probe (0.5 nM) in 20 µL volumes. All concentrations are reported in a 25 µL final volume. Assays were performed in an assay buffer containing 10 mM HEPES (pH 7.5) supplemented with 0.001% (v/v) Triton X-100.

MDH [2] = molecular target: T3, MDH (Sus scrofa, UniProt P00346); assay: FRET-Probe isothermal chemical denaturation (ICD) assay, MDH; assay type: binding; details: 25 nM MDH
T3 construct: purchased Sigma-Aldrich (St. Louis, MO, USA)
T3 sequence (P00346 25-338): T2 sequence (P00346 25-338)
Experimental: as §1, §2

MDH [3] = molecular target: MDH; set-up: method as in PMID 225321; details: MDH/NADH interaction; cited from earlier work

Compound: Nc1ncnc2c1ncn2[C@@H]1O[C@H](COP(=O)(O)OP(=O)(O)OP(=O)(O)O)[C@@H](O)[C@H]1O [ATP]
- TR-FRET signal level compared with protein alone (KRAS^G12V; 50 nM KRAS^G12V, pH 5, 2 and 10 µM ATP): no change of signal level; also recorded: in the same range

- S/B ratio, denaturation with and without GTP (KRAS^G12V; 50 nM KRAS^G12V, 1 M urea, 60 min): 15.1
- S/B ratio, denaturation with and without GTP (KRAS^G12V; 50 nM KRAS^G12V, 2 M urea, 60 min): 20.3
- EC50 (KRAS^G12V; 50 nM KRAS^G12V, pH 5 denaturation buffer, 30 min): 4.5 ± 1.9 nM
- EC50 (KRAS^G12V; 50 nM KRAS^G12V, pH 5 denaturation buffer, 60 min): 2.6 ± 0.7 nM
- EC50 (KRAS^G12V; 50 nM KRAS^G12V, pH 5 denaturation buffer, 90 min): 3.5 ± 0.1 nM
- EC50 (KRAS^G12V; 50 nM KRAS^G12V, pH 5 denaturation buffer, 120 min): 4.6 ± 0.3 nM
- EC50 (KRAS^G12V; KRAS^G12V, 20% 1-propanol, 30 min): 3.6 ± 0.5 nM
- EC50 (KRAS^G12V; KRAS^G12V, 20% 1-propanol, 60 min): 3.8 ± 0.4 nM
- EC50 (KRAS^G12V; KRAS^G12V, 20% 1-propanol, 90 min): 5.2 ± 1.2 nM
- EC50 (KRAS^G12V; KRAS^G12V, 20% 1-propanol, 120 min): 5.2 ± 0.7 nM
Compound: Nc1nc2c(ncn2[C@@H]2O[C@H](COP(=O)(O)OP(=O)(O)OP(=O)(O)O)[C@@H](O)[C@H]2O)c(=O)[nH]1 [GTP, guanosine-5'-triphosphate]

- Tm of MDH with NADH ([1]; 5 µM NADH): 47.9 ± 0.6 °C
- Tm of MDH with NADH ([1]; 50 µM NADH): 51.7 ± 0.2 °C
- Δ Tm of MDH ([1]; 5 µM NADH): 1.2 °C
- Δ Tm of MDH ([1]; 50 µM NADH): 5.0 °C
- EC50 (MDH [2]; 30–50% 1-propanol, 60 min incubation): 29000 to 38000 nM
- EC50 (MDH [2]; pH 5 denaturation buffer, RT, 90 min incubation): 4700 ± 800 nM
- ligand-induced stabilization of MDH (MDH [2]; pH 5, 5 and 50 µM NADH, RT): clear ligand-induced stabilization
Compound: NC(=O)C1=CN([C@@H]2O[C@H](COP(=O)(O)OP(=O)(O)OC[C@H]3O[C@@H](n4cnc5c(N)ncnc54)[C@H](O)[C@@H]3O)[C@@H](O)[C@H]2O)C=CC1 [NADH, reduced nicotinamide adenine dinucleotide]
- Kd (MDH [3]): 3800 nM

Reference: article PMC10654576, “Isothermal chemical denaturation assay for monitoring protein stability and inhibitor interactions” (Scientific Reports, 2023)
